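Test compounds were applied to cells in 96-well plates for 48 hours at 5 doses. GI50 is the concentration that inhibits growth by half.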 Calls of active or inactive are those of the source. No stated cut-off is given here; in the data, active = GI50 up to about 1.1 µM and inactive = higher.
Experiments:
Experiment in all cases: NCI tumour cell line growth inhibition, 48 h
786-0 = tested on: 786-0
DU-145 = tested on: DU-145
EKVX = tested on: EKVX
HCC 2998 = tested on: HCC 2998
HL-60 = tested on: HL-60
M14 = tested on: M14
MCF7 = tested on: MCF7
MDA-MB-231 = tested on: MDA-MB-231
NCI-H522 = tested on: NCI-H522
NCI/ADR-RES = tested on: NCI/ADR-RES
PC-3 = tested on: PC-3
SF-295 = tested on: SF-295
SR = tested on: SR
SW-620 = tested on: SW-620
UACC-257 = tested on: UACC-257
UACC-62 = tested on: UACC-62
A549 = tested on: A549

Structure (SMILES) | GI50 (786-0) | GI50 (DU-145) | GI50 (EKVX) | GI50 (HCC 2998) | GI50 (HL-60) | GI50 (M14) | GI50 (MCF7) | GI50 (MDA-MB-231) | GI50 (NCI-H522) | GI50 (NCI/ADR-RES) | GI50 (PC-3) | GI50 (SF-295) | GI50 (SR) | GI50 (SW-620) | GI50 (UACC-257) | GI50 (UACC-62) | GI50 (A549)
C/C=C(/C)C(=O)O[C@H]1[C@H]2[C@@H]([C@@H](OC(C)=O)[C@H](C)C(=O)[C@@]34C[C@@H](C)C(=O)[C@]3(/C=C(\C)[C@H]1OC(C)=O)O4)C2(C)C | 2.67 µM (inactive) | 1.66 µM (inactive) | 3.83 µM (inactive) | 5.16 µM (inactive) | 0.305 µM (active) | 2.47 µM (inactive) | 3.26 µM (inactive) | 3.72 µM (inactive) | 3.28 µM (inactive) | 4.12 µM (inactive) | 3.45 µM (inactive) | 3.89 µM (inactive) | 2.54 µM (inactive) | 3.39 µM (inactive) | 4.09 µM (inactive) | 3.35 µM (inactive) | 
COC(=O)CC1(O)C(C=C(C)C)C(C(=O)OC)C(=O)C(C(=O)OC)C1C(=O)OC (configuration not stated) | > 100 µM (inactive) | > 100 µM (inactive) | > 100 µM (inactive) | > 100 µM (inactive) | > 100 µM (inactive) | > 100 µM (inactive) | > 100 µM (inactive) | > 100 µM (inactive) | > 100 µM (inactive) | 38.5 µM (inactive) | > 100 µM (inactive) | > 100 µM (inactive) | > 100 µM (inactive) | > 100 µM (inactive) | > 100 µM (inactive) | > 100 µM (inactive) | > 100 µM (inactive)
NCCCN(CCCN(C(=O)Nc1ccccc1)c1ccccc1)C(=O)Nc1ccccc1 | 33 µM (inactive) | 36.8 µM (inactive) | 58.7 µM (inactive) | 25.6 µM (inactive) | 28.1 µM (inactive) | 19.4 µM (inactive) | 35.1 µM (inactive) | 59.6 µM (inactive) | 20.2 µM (inactive) | 69.5 µM (inactive) | 33.7 µM (inactive) | 23.2 µM (inactive) | 45 µM (inactive) | 21.3 µM (inactive) | 22 µM (inactive) | 23.1 µM (inactive) | 47.1 µM (inactive)
CN(C)c1ccc(/C=C/C(=O)CC(=O)/C=C/c2ccc(N(C)C)cc2)cc1 | > 100 µM (inactive) | > 100 µM (inactive) | > 100 µM (inactive) | > 100 µM (inactive) | > 100 µM (inactive) | > 100 µM (inactive) | > 100 µM (inactive) | 85.1 µM (inactive) | > 100 µM (inactive) | > 100 µM (inactive) | > 100 µM (inactive) | > 100 µM (inactive) | 36.2 µM (inactive) | > 100 µM (inactive) |  | 56.4 µM (inactive) | > 100 µM (inactive)
O=C1NN=C2C=C(c3ccc(Cl)cc3)CC(c3cccc(Br)c3)C12 (configuration not stated) | > 100 µM (inactive) | 41.8 µM (inactive) | 47.5 µM (inactive) | 38.7 µM (inactive) | 42 µM (inactive) | > 100 µM (inactive) | 44 µM (inactive) | 30.4 µM (inactive) | 38.4 µM (inactive) | > 100 µM (inactive) | 53.7 µM (inactive) | 91.4 µM (inactive) | 38.3 µM (inactive) | 81.8 µM (inactive) | 22.4 µM (inactive) | 87.3 µM (inactive) | 37.4 µM (inactive)
O=c1oc2ccc([N+](=O)[O-])cc2c(Nc2ccc3c(c2)Oc2ccccc2O3)c1[N+](=O)[O-] | 23.4 µM (inactive) | 59.7 µM (inactive) | 31.6 µM (inactive) | 27.7 µM (inactive) | 21.3 µM (inactive) | 30.1 µM (inactive) | 26.5 µM (inactive) | 19.1 µM (inactive) | 35.5 µM (inactive) | 29.9 µM (inactive) | 25 µM (inactive) | 43.6 µM (inactive) | 31 µM (inactive) |  | 26.2 µM (inactive) | 25.6 µM (inactive) | 32.1 µM (inactive)
O=P1(Cc2ccccc2)c2ccccc2-c2ccccc21 | 7.94 µM (inactive) | 7.38 µM (inactive) | 20.4 µM (inactive) | 1.51 µM (inactive) | 1.04 µM (active) | 3.67 µM (inactive) | 3.08 µM (inactive) | 20.7 µM (inactive) | 1.87 µM (inactive) | > 100 µM (inactive) | 2.82 µM (inactive) | 5.98 µM (inactive) | 3.89 µM (inactive) | 3.61 µM (inactive) | 1.86 µM (inactive) | 1.96 µM (inactive) | 8.81 µM (inactive)
CCCCCC(C(O)C#N)C(O)(C(F)(F)F)C(F)(F)F (configuration not stated) | > 10 µM (inactive) | > 10 µM (inactive) |  | > 10 µM (inactive) | > 10 µM (inactive) | > 10 µM (inactive) | > 10 µM (inactive) | > 10 µM (inactive) | > 10 µM (inactive) | > 10 µM (inactive) | > 10 µM (inactive) | > 10 µM (inactive) | > 10 µM (inactive) | > 10 µM (inactive) | > 10 µM (inactive) | > 10 µM (inactive) | > 10 µM (inactive)
